The record followed here is publication PMC11470957, “Principles of paralog-specific targeted protein degradation engaging the C-degron E3 KLHDC2” (Nature Communications, 2024).

Where “and” joins values, the source holds several entries; their conditions need not be identical. Equal entries are not always repeated. Where two headings read alike, the source gives them in different places.

The test system of series [1] is SKBR3, AU565, RD, SKES1, A673 cells. The series can be described thus: Cell Titer-Glo Luminescent Cell Viability assay. The settings on record: read-out: IC50, cell viability; five cell lines (SKBR3, AU565, RD, SKES1, A673), after 24 hours.
The target in series [2] is T1, KLHDC2^SBD (Homo sapiens, UniProt Q9Y2U9).
T1 sequence (Q9Y2U9 15-361): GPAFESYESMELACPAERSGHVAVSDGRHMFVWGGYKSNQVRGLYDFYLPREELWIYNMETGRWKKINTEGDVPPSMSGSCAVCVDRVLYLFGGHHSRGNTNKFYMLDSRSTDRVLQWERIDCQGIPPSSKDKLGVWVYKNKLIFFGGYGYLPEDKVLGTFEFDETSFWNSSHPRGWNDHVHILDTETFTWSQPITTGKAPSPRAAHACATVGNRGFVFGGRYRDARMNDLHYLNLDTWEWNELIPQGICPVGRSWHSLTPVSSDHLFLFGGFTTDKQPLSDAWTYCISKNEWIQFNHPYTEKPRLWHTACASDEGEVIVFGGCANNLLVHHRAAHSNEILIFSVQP
Kind of series: TR-FRET assay, competition with di-Gly degron peptide binding to KLHDC2^SBD. Further details: KLHDC2^SBD (15-361) and its Avi-tagged counterpart were expressed in E. coli Rosetta2 cells; 6XHis-MBP (N, cleaved yes); made in house; host or cells: E. coli Rosetta2. As for the experimental part:
TR-FRET assays were carried out in black 384-well microtiter plates at a final volume of 20 μL per well. An assay cocktail was prepared as a mixture of 50 nM Biotin-KLHDC2 SBD, 20 nM AlexaFluor488-RIC8B peptide, 2.5 nM Tb-Streptavidin (ThermoFisher) in assay buffer (25 mM HEPES, 100 mM NaCl, 0.1% Triton X-100, 0.5 mM DTT, pH 7.5). The assay cocktail was incubated for thirty-minutes at room temperature and 20 μl distributed to assay plates. Molecules were distributed to the plates at the indicated concentration and the assay mixture was incubated for 1 h at room temperature prior to measuring the TR-FRET signal with a PHERAstar FS plate reader (BMG Labtech) equipped with modules for excitation at 337 nm and emissions at 490 and 520 nm. The integration start was set to 100 µs and the integration time to 200 µs. The number of flashes was fixed at 100. The ratio of 520/490 was used as TR-FRET signal in calculations. Assay endpoints were normalized to 100% (buffer only) and used for curve fitting in Prism.

For series [3], the target named is T1, KLHDC2^SBD. The series can be described thus: Thermal shift assay (Sypro Orange) probing stabilization of KLHDC2^SBD. It is filed as binding. Details: KLHDC2^SBD (15-361) and its Avi-tagged counterpart were expressed in E. coli Rosetta2 cells; 6XHis-MBP (N, cleaved yes); made in house; host or cells: E. coli Rosetta2. As for the experimental part:
In an attempt to identify non-peptide ligands that target KLHDC2’s substrate binding domain (SBD), we developed a thermal shift assay probing for stabilization of KLHDC2^SBD upon ligand addition. […] We utilized the thermal shift assay to screen ~ 9,000 molecules from a diverse collection of lead-like molecules (Figs. 1b, S1a, Supplementary Table 1).
Experimental compounds (200 nl each) were dispensed into a 384-well PCR plate using the Labcyte ECHO 655 T. The assay solution, comprising 0.5 μM KLHDC2, 25 mM HEPES, 200 mM NaCl, and 5% Sypro Orange at pH 7.5, was added to achieve a final volume of 20 μl. Negative control wells contained only DMSO, while positive control wells contained a di-Gly substrate peptide derived from SELK. Fluorescence measurements of Sypro Orange in each sample were taken using a Quantstudio 5 or Quantstudio 6, with temperatures ranging from 23 to 75 °C at a rate of 0.05 °C/s. Data analysis involved calculating thermal stability using the Boltzmann and first derivative minima equations in Thermo Scientific Protein Thermal Shift software v1.4. The resulting data were uploaded to CDD Vault for further analysis.
The 8892-compound lead-like one library was screened for its ability to stabilize KLHDC2 using a sypro orange-based thermal stability single-point assay.
Supplementary Ta b l e 1. Small molecule screening data
Category Parameter Description
Assay Ty p e o f assay Thermal Stability Screen
Primary measurement RFU of Sypro Orange
Key reagents Sypro Orange
Assay protocol Experimental compounds (200nl each) were dispensed into […]
a 384-well PCR plate using the Labcyte ECHO 655T. The […]
assay solution, comprising 0.5µM KLHDC2, 25mM HEPES,
200mM NaCl, and 5% Sypro Orange at pH 7.5, was added […]
to achieve a final volume of 20μl. Negative control wells […]
contained only DMSO, while positive control wells […]
contained peptide sub2. Fluorescence measurements of
Sypro Orange in each sample were taken using a
Quantstudio 5 or Quantstudio 6, with temperatures ranging […]
from 23 to 75°C at a rate of 0.05°C/second. Data analysis […]
involved calculating thermal stability using the Boltzmann […]
and first derivative minima equations in Thermo Scientific
Protein Thermal Shift software v1.4. The resulting data […]
were uploaded to CDD Vault for further analysis.
Library Library size 10041
Library composition The library was curated from compounds cherry picked […]
from St. Jude’s collection, representative of 80% of the […]
entire collection based on scaffold diversity (2D Molecular […]
fingerprinting based clustering) and structural properties: […]
lipophilicity (cLogP<3), size (MW 200-300 Da), and no […]
structural alerts (PAINS).
Source The compound collection was curated from multiple […]
vendors and stored on-site.
Screen Format The assay was completed in 26 384 well plates
Concentration(s) tested Compounds were tested at 100µM, and then a 16-point […]
serial dilution was performed on select compounds.
Plate controls DMSO as negative control and peptide sub2 as positive […]
Reagent/ compound dispensing system Multidrop Combi and Labcyte ECHO 655T […]
Detection instrument and software Quant Studio 5 and Quant Studio 6 and Thermo Scientific […]
Protein Thermal Shift software v1.4
Correction factors No correction factors were applied.

Series [4] has as its target T1, KLHDC2^SBD. The series can be described thus: Surface plasmon resonance binding to KLHDC2. Further details: KLHDC2^SBD (15-361) and its Avi-tagged counterpart were expressed in E. coli Rosetta2 cells; 6XHis-MBP (N, cleaved yes); made in house; host or cells: E. coli Rosetta2. As for the experimental part: Surface plasmon resonance (SPR) was utilized to determine kinetic parameters and binding affinity of KLHDC2 substrates using a PioneerFE (Sartorius). Experiments were carried out in 20 mM Tris, 200 mM NaCl, 1 mM TCEP, 0.01% Brij35, and 1% DMSO at pH 7.4 as a running buffer with a 100 µL/min flow rate at 20 °C.
The 10xHis-KLHDC2 was immobilized onto a Ni-NTA-coated biosensor chip (HisCap). The chip surface was conditioned using 10 mM HCl, 50 mM NaOH, and 0.1% SDS (50 µL at 100 µL/min) twice, followed by a 100 mM Tris buffer wash (100 µL at 100 µL/min). The surface was then activated using an injection of 0.5 M EDTA (125 µL at 25 µL/min) followed by an injection of 5 mM NiCl2 (125 µL at 25 µL/min). […] Channel 2 was treated identically to channel 3 except for protein loading to be used as a reference channel. […] 100% of the loop was injected with a 300 s dissociation time. All samples were run in triplicate. Data was analyzed using Qdat software and fit to a simple 1-site model.
The SPR experiments were performed to determine the binding affinities (KD) of KLHDC2-SJ46411 and KLHDC2-SJ46418 complexes. All the experiments were performed using a Biacore 1S+ instrument. […] The running buffer consisted of 20 mM Tris pH 7.5, 200 mM NaCl, 1 mM TCEP, 0.01% Brij35, and 4% DMSO. […] In brief, before the immobilization, the sensor chip surface was conditioned by injecting a mixture of (3:1 v/v) 8 M guanidine hydrochloride and 1 M NaOH at a flow rate of 5 μL/min for 2 min for two times. Then, running buffer was injected at a 30 μl/min flow rate for 1 min 3 times. Next, the Biotin CAPture reagent was injected at a flow rate of 2 μl/min for 5 min. Then, biotinylated KLHDC2 was only injected onto the active channel (channel 2).
Sample preparation was carried out precisely the same as SJ46411. All experiments were performed using a multi-cycle analysis method with a 30 μl/min flow rate, 120 S association, and 240 s dissociation time. All data were reference subtracted and corrected for DMSO mismatch. The sensorgrams were analyzed using Biacore insight evaluation software, and KD was determined using the 1:1 steady-state affinity fitting. Finally, all the analyzed data was replotted using GraphPad Prizm 10 software.

Series [5] deals with T1, KLHDC2^SBD. Kind of series: ITC, binary binding of small molecule to KLHDC2^SBD.
The subject of series [6] is BD2 domain from BRD2, BRD3, or BRD4 / neddylated CRL2^KLHDC2. Kind of series: Pulse-chase PROTAC-dependent ubiquitylation of BRD BD2 domains by neddylated CRL2^KLHDC2. Conditions: neddylated CRL2^KLHDC2 not subject to autoinhibition; Fig 3e.
Series [7] in a line: Solubility as observed in the ITC sample cell. The settings on record: at 40 μM in the ITC sample cell.
In series [8] the target is neddylated CRL2^KLHDC2 / BRD3^BD2 (Homo sapiens, UniProt Q15059+Q9Y2U9, Q9Y2U9:G405K/Q9Y2U9:S406K). The series can be described thus: biochemical.
The target in another series is neddylated CRL2^KLHDC2 (Homo sapiens, UniProt Q9Y2U9, G405K/S406K). The series can be described thus: biochemical.
The target of a further series is KLHDC2^SBD / BRD3^BD2 (Homo sapiens, UniProt Q15059+Q9Y2U9). Kind of series: ITC, ternary complex KLHDC2^SBD with PROTAC-BRD3^BD2.
Chain of KLHDC2^SBD / BRD3^BD2 (Q15059 306-416, one chain of several): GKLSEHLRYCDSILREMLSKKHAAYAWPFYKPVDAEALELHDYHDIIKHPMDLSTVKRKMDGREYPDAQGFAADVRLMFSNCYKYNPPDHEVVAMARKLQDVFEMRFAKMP
Where [9] appears, read: inhibition of KLHDC2^SBD binding to a di-Gly degron peptide, read-out: TR-FRET IC50.
The mark [10] stands for this setting: cell: ligand, syringe: KLHDC2^SBD.
Setting [11] is: cell: PROTAC-BRD3^BD2, syringe: KLHDC2^SBD.

Regarding `Cc1sc2c(c1C)C(c1ccc(Cl)cc1)=N[C@@H](CC(=O)OC(C)(C)C)c1nnc(C)n1-2` [JQ1, reference compound], the IC50 in series [1] was around 0.3 µM.

As to `O=C(O)CNC(=O)Cc1csc(-c2cccc(Cl)c2)n1` [SJ10267], on KLHDC2^SBD [2] (setting [9]), the IC50 was 46.7 ± 13.5 µM. Also, at KLHDC2^SBD [3] (read-out: ΔTm at 50 µM), the thermal shift (ΔTm) at 50 µM worked out at 2.3 ± 0.07 °C. The dissociation constant (Kd) on KLHDC2^SBD [4] (read-out: SPR Kd) came to 19 ± 0.06 µM.

As to `COc1ccc(-c2nc(CC(=O)NCC(=O)O)cs2)c(Cl)c1` [SJ10272], the IC50 at KLHDC2^SBD [2] (setting [9]) turned out to be 30.2 ± 3.4 µM. Also, the ΔTm at 50 µM at KLHDC2^SBD [3] (read-out: ΔTm at 50 µM) was determined as 3.3 ± 0.2 °C. The Kd at KLHDC2^SBD [4] (read-out: SPR Kd) was 14.52 ± 0.01 µM.

In the case of `O=C(O)CNC(=O)Cc1csc(-c2ccc(O)cc2Cl)n1` [SJ10280], at KLHDC2^SBD [2] (setting [9]), the IC50 worked out at 40.6 ± 7.6 µM. Further, the ΔTm at 50 µM on KLHDC2^SBD [3] (read-out: ΔTm at 50 µM) was 2.5 ± 0.2 °C. The Kd at KLHDC2^SBD [4] (read-out: SPR Kd) is 25.47 ± 0.05 µM.

For `COCn1cc(-c2nc(CC(=O)NCC(=O)O)cs2)ccc1=O` [SJ15396], the IC50 on KLHDC2^SBD [2] was 55.3 ± 25.2 µM. For the same compound, the shift in melting temperature (ΔTm) at 50 µM on KLHDC2^SBD [3] (50 µM compound) is 0.9 ± 0.2 °C. On KLHDC2^SBD [4] (SPR Kd), the Kd was above 2000 µM.

As to `COCOc1ccc(-c2nc(CC(=O)NCC(=O)O)cs2)cc1F` [SJ45737], the IC50 on KLHDC2^SBD [2] (setting [9]) amounted to 72.8 ± 8.6 µM. Besides, the ΔTm at 50 µM at KLHDC2^SBD [3] (read-out: ΔTm at 50 µM) is 2.8 ± 0.3 °C. Further, the Kd at KLHDC2^SBD [4] (read-out: SPR Kd) was found to be 26.6 ± 0.1 µM.

On to `Cc1sc2c(c1C)C(c1ccc(Cl)cc1)=N[C@@H](CC(=O)N1CCN(CCOc3ccc4ccc(-c5nc(CC(=O)NCC(=O)O)cs5)cc4c3)CC1)c1nnc(C)n1-2` [SJ46423], for which the Kd on KLHDC2^SBD [5] (ITC Kd, cell: ligand, syringe: KLHDC2^SBD) was 0.74 µM and 0.737 µM. Also, the Kd at KLHDC2^SBD [5] (Kd, Rep1/Rep2, ITC source data Fig4a, syringe KLHDC2, cell PROTAC alone) is 0.69 µM and 0.789 µM. Also, on KLHDC2^SBD [5] (setting [10]), the “ITC -TΔS” value is recorded as -5.26 +/- 0.22 kcal/mol-1; the “ITC stoichiometry of binding N” value was 0.4 and ~ 0.5; the “ITC ΔG” value is given as -8.61 +/- 0.04 kcal/mol-1; the “ITC ΔH” value was -3.35 +/- 0.11 kcal/mol-1. The “polyubiquitylation of the BD2 domain from BRD2, BRD3, or BRD4” value in series [6] is recorded as “able to promote polyubiquitylation”. The solubility entry in series [7] is listed as “solubility issues”. Moreover, in series [8], inhibition was half-maximal at 2.2 µM (IC50). On neddylated CRL2^KLHDC2, this compound had an IC50 of 15.3 µM. On KLHDC2^SBD / BRD3^BD2 (BRD3^BD2, KLHDC2^SBD), the “cooperativity α” value worked out at 2.9. Also, on KLHDC2^SBD / BRD3^BD2 (setting [11]), the “ITC -TΔS (ternary)” value was -5.26 +/- 0.18 kcal/mol-1; the “ITC N (ternary)” value was 0.4 and ~ 0.5; the “ITC ΔG (ternary)” value is -9.33 +/- 0.05 kcal/mol-1.
